Measured values published in patent US20040209900A1, “Treatment of lipodystrophy (lipid redistribution syndrome)” (priority 2003, published 2004).

Tested on: lipodystrophy
Experiment: Observation of lipodystrophy signs and symptoms in patients using pentoxifylline for claudication
Format: in vivo, human
From the text: It is believed that 80-85% of patients respond favorably with amelioration some or all of their symptoms.

[1] = diabetic HIV positive patients using pentoxifylline for claudication

CC(=O)CCCCn1c(=O)c2c(ncn2C)n(C)c1=O [pentoxifylline]
central fat deposition [1]: resolved or remitted
facial lines [1]: decreased and/or disappeared
leg vein prominence [1]: diminished or disappeared
signs and symptoms of lipodystrophy (diabetic HIV positive patients with peripheral vascular disease and intermittent claudication, using pentoxifylline for claudication): disappeared or were ameliorated
patients responding favorably with amelioration of some or all of their symptoms (patients using pentoxifylline, stated as 'It is believed'): 80-85%
